Data published in ChEMBL document CHEMBL1130332, “Synthesis of (+)- and ()-2-methylarachidonyl-2-fluoroethylamide (O-689)” (Bioorg Med Chem Lett, 1997).
Where “and” joins values, the source holds several entries; their conditions need not be identical. Equal values may be shown once.

Columns and labels:
[1] = target: T1, Cannabinoid receptor 1 (Rattus norvegicus, UniProt P20272); experiment: Compound was evaluated for binding affinity to displace [3H]CP-55940 radioligand from cannabinoid receptor in rat brain P2 membrane; format: cell membranes
T1 sequence (P20272 whole entry): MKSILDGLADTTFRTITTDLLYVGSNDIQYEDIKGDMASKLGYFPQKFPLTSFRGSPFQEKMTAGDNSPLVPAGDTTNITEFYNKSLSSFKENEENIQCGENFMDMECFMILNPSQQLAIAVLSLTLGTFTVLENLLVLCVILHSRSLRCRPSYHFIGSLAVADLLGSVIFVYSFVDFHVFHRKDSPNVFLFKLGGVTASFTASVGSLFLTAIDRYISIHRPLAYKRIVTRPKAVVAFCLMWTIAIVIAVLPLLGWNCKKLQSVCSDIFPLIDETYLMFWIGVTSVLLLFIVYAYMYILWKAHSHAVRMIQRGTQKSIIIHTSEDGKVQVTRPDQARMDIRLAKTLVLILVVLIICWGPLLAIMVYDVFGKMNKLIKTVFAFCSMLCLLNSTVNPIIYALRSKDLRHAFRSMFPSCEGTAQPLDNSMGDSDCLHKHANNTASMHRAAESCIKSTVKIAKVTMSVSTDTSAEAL

[2] = target: T1, Cannabinoid receptor 1; experiment: Compound was evaluated for binding affinity towards cannabinoid receptor in rat brain P2 membrane; format: cell membranes
[3] = tested on: Mus musculus; experiment: Tested for ring immobility in mouse upon intravenous administration; format: functional
[4] = tested on: Mus musculus; experiment: Tested for hypothermia in mouse upon intravenous administration; format: functional
[5] = tested on: Mus musculus; experiment: Tested for in vivo inhibition of locomotor activity in mouse upon intravenous administration; format: functional
[6] = tested on: Mus musculus; experiment: Tested for in vivo […] by tail-flick method in mouse upon intravenous administration; format: functional

SMILES | Ki [1] | Ki [2] | ED50 [3] | ED50 [4] | ED50 [5] | ED50 [6]
CCCCC/C=C\C/C=C\C/C=C\C/C=C\CCC(C)C(=O)NCCF (racemic) | 21.2 nM | 5.7 nM | 1.6 mg/kg | 2.73 mg/kg | 1.85 mg/kg and 4.78 mg/kg | –
CCCCC/C=C\C/C=C\C/C=C\C/C=C\CCC(C)C(=O)NCCF (single isomer, unassigned; (-)) | 15.3 nM | – | 2.93 mg/kg | 10.1 mg/kg | 2.3 mg/kg | 1.34 mg/kg
CCCCC/C=C\C/C=C\C/C=C\C/C=C\CCC(C)C(=O)NCCF (stereo in doubt; (+)-4a) | 22.4 nM | – | 5.27 mg/kg | 2.49 mg/kg | 10.2 mg/kg | 2.56 mg/kg
